Source: PubChem BioAssay AID344 (DTP/NCI, 2004)
Inconclusive results and toxic doses are left out. Rule for the calls: active = survival T/C of 150% or more; inactive = T/C below 125% in these data.

System: mice, LPC-1 plasma cell tumor ip, median survival T/C
Assay: NCI In Vivo Anticancer Drug Screen. Data for tumor model Lieberman Plasma Cell No. 1 (LPC-1) (intraperitoneal) in unknown mice
Details: endpoint: median survival time, higher = longer survival
Method: The antitumor activity of compounds was measured in mice bearing transplantable tumors. Survival or tumor size were measured and the results are expressed as the measurement made in the treated group (T) divided by the measurement made in the vehicle treated control group (C). The tumor model used in this assay is Lieberman Plasma Cell No. 1 (LPC-1) (intraperitoneal) in unknown mice

[1] = dose: 0.39 mg/kg/injection, schedule: Q01DX028 (sc), vehicle: other
[2] = dose: 0.65 mg/kg/injection, schedule: Q01DX028 (sc), vehicle: other
[3] = dose: 1.08 mg/kg/injection, schedule: Q01DX028 (sc), vehicle: other
[4] = dose: 1.8 mg/kg/injection, schedule: Q01DX028 (sc), vehicle: other
[5] = dose: 3.0 mg/kg/injection, schedule: Q01DX028 (sc), vehicle: other
[6] = dose: 5.0 mg/kg/injection, schedule: Q01DX028 (sc), vehicle: carboxymethylcellulose (CMC)
[7] = dose: 12.5 mg/kg/injection, schedule: Q01DX028 (sc), vehicle: carboxymethylcellulose (CMC)
[8] = dose: 25.0 mg/kg/injection, schedule: Q01DX028 (sc), vehicle: carboxymethylcellulose (CMC)

Measured: T/C

NC(Cc1c[nH]c2ccc(N(CCCl)CCCl)cc12)C(=O)O (stereo not drawn)
active: dose: 0.23 mg/kg/injection, schedule: Q01DX028 (sc), vehicle: acid diluted with saline 235 % of control | dose: 0.39 mg/kg/injection, schedule: Q01DX028 (sc), vehicle: acid diluted with saline 276 % of control | [1] 285 % of control | dose: 0.65 mg/kg/injection, schedule: Q01DX028 (sc), vehicle: acid diluted with saline 230 % of control | dose: 0.65 mg/kg/injection, schedule: Q01DX028 (sc), vehicle: methylcellulose (MC) 164 % of control | [2] 380 % of control | [3] 157 % of control
inactive: dose: 1.08 mg/kg/injection, schedule: Q01DX028 (sc), vehicle: methylcellulose (MC) 119 % of control | dose: 1.8 mg/kg/injection, schedule: Q01DX028 (sc), vehicle: acid diluted with saline 107 % of control | [4] 114 % of control | dose: 3.0 mg/kg/injection, schedule: Q01DX028 (sc), vehicle: acid diluted with saline 97 % of control | [5] 102 % of control

CC1(C)CC(C)(c2ccc(O)cc2)c2ccccc2O1 (stereo not drawn)
inactive: dose: 200.0 mg/kg/injection, schedule: Q01DX028 (sc), vehicle: steriod suspending solution 114 % of control | dose: 400.0 mg/kg/injection, schedule: Q01DX028 (sc), vehicle: steriod suspending solution 114 % of control

NC(=O)c1ccc(N)nc1
inactive: dose: 0.16 mg/kg/injection, schedule: Q01DX028 (sc), vehicle: water 100 % of control | dose: 0.32 mg/kg/injection, schedule: Q01DX028 (sc), vehicle: water 97 % of control | dose: 0.65 mg/kg/injection, schedule: Q01DX028 (sc), vehicle: water 95 % of control | dose: 1.25 mg/kg/injection, schedule: Q01DX028 (sc), vehicle: water 97 % of control | dose: 2.5 mg/kg/injection, schedule: Q01DX028 (sc), vehicle: water 100 % of control | dose: 5.0 mg/kg/injection, schedule: Q01DX028 (sc), vehicle: water 107 % of control

O=C(O)CCCc1ccc(N(CCCl)CCCl)cc1
inactive: dose: 1.0 mg/kg/injection, schedule: Q01DX007 (sc), vehicle: saline 93 % of control | dose: 2.0 mg/kg/injection, schedule: Q01DX007 (sc), vehicle: saline 109 % of control | dose: 3.0 mg/kg/injection, schedule: Q01DX028 (sc), vehicle: methylcellulose (MC) 95 % of control | dose: 4.0 mg/kg/injection, schedule: Q01DX007 (sc), vehicle: saline 118 % of control | dose: 5.0 mg/kg/injection, schedule: Q01DX028 (sc), vehicle: methylcellulose (MC) 97 % of control | dose: 8.4 mg/kg/injection, schedule: Q01DX028 (sc), vehicle: methylcellulose (MC) 100 % of control | dose: 14.0 mg/kg/injection, schedule: Q01DX028 (sc), vehicle: methylcellulose (MC) 113 % of control | dose: 16.0 mg/kg/injection, schedule: Q01DX007 (sc), vehicle: saline 112 % of control

COc1cc2oc(=O)ccc2cc1CC=C(C)C
inactive: dose: 25.0 mg/kg/injection, schedule: Q01DX028 (sc), vehicle: saline 100 % of control

CO[C@@]12[C@H](COC(N)=O)C3=C(C(=O)C(C)=C(N)C3=O)N1C[C@@H]1N[C@@H]12
inactive: dose: 1.0 mg/kg/injection, schedule: Q01DX028 (sc), vehicle: saline 111 % of control | dose: 2.0 mg/kg/injection, schedule: Q01DX028 (sc), vehicle: saline 100 % of control
active: dose: 0.25 mg/kg/injection, schedule: Q01DX028 (sc), vehicle: saline 191 % of control | dose: 0.5 mg/kg/injection, schedule: Q01DX028 (sc), vehicle: saline 161 % of control

CN[C@H]1CCc2cc(OC)c(OC)c(OC)c2-c2ccc(OC)c(=O)cc21
inactive: dose: 0.62 mg/kg/injection, schedule: Q01DX015 (sc), vehicle: saline 102 % of control | dose: 1.25 mg/kg/injection, schedule: Q01DX015 (sc), vehicle: saline 102 % of control | dose: 1.25 mg/kg/injection, schedule: Q01DX028 (sc), vehicle: saline 107 % of control | dose: 2.5 mg/kg/injection, schedule: Q01DX028 (sc), vehicle: saline 107 % of control

O=C(O)CCc1c[nH]c2ccc(N(CCCl)CCCl)cc12
inactive: dose: 2.7 mg/kg/injection, schedule: Q01DX028 (sc), vehicle: carboxymethylcellulose (CMC) 113 % of control | dose: 9.0 mg/kg/injection, schedule: Q01DX028 (sc), vehicle: carboxymethylcellulose (CMC) 86 % of control
active: dose: 1.8 mg/kg/injection, schedule: Q01DX028 (sc), vehicle: carboxymethylcellulose (CMC) 182 % of control | dose: 3.0 mg/kg/injection, schedule: Q01DX028 (sc), vehicle: carboxymethylcellulose (CMC) 164 % of control | [6] 151 % of control | dose: 6.0 mg/kg/injection, schedule: Q01DX028 (sc), vehicle: carboxymethylcellulose (CMC) 163 % of control

Cc1c2c(c(C)c3c1OC(C)(C)CC3)OC(C)(C)CC2
inactive: dose: 50.0 mg/kg/injection, schedule: Q01DX009 (sc), vehicle: saline 104 % of control | dose: 100.0 mg/kg/injection, schedule: Q01DX009 (sc), vehicle: saline 97 % of control | dose: 200.0 mg/kg/injection, schedule: Q01DX009 (sc), vehicle: saline 95 % of control | dose: 400.0 mg/kg/injection, schedule: Q01DX009 (sc), vehicle: saline 90 % of control

CN(C)c1ccc(/C=C2\C=Cc3ccccc32)cc1
inactive: dose: 6.3 mg/kg/injection, schedule: Q01DX028 (sc), vehicle: carboxymethylcellulose (CMC) 102 % of control | [7] 102 % of control | [8] 102 % of control | dose: 50.0 mg/kg/injection, schedule: Q01DX028 (sc), vehicle: carboxymethylcellulose (CMC) 97 % of control | dose: 100.0 mg/kg/injection, schedule: Q01DX028 (sc), vehicle: carboxymethylcellulose (CMC) 94 % of control

CS(=O)(=O)OCCN(CCOS(C)(=O)=O)c1ccccc1
active: dose: 6.25 mg/kg/injection, schedule: Q01DX028 (sc), vehicle: carboxymethylcellulose (CMC) 161 % of control | [7] 155 % of control | dose: 15.0 mg/kg/injection, schedule: Q01DX028 (sc), vehicle: carboxymethylcellulose (CMC) 184 % of control | dose: 22.0 mg/kg/injection, schedule: Q01DX028 (sc), vehicle: carboxymethylcellulose (CMC) 194 % of control
inactive: dose: 3.12 mg/kg/injection, schedule: Q01DX028 (sc), vehicle: carboxymethylcellulose (CMC) 113 % of control | [8] 105 % of control | dose: 33.0 mg/kg/injection, schedule: Q01DX028 (sc), vehicle: carboxymethylcellulose (CMC) 110 % of control

O=c1ccc2cc(O)c(O)cc2o1
inactive: dose: 31.0 mg/kg/injection, schedule: Q01DX028 (sc), vehicle: steriod suspending solution 119 % of control | dose: 62.0 mg/kg/injection, schedule: Q01DX028 (sc), vehicle: steriod suspending solution 115 % of control

CCN(CC)CCNc1ccc(C)c2sc3ccccc3c(=O)c12 (tested in a mixture with another compound)
active: dose: 48.0 mg/kg/injection, schedule: Q01DX028 (sc), vehicle: saline 221 % of control | dose: 69.0 mg/kg/injection, schedule: Q01DX028 (sc), vehicle: saline 231 % of control | dose: 98.0 mg/kg/injection, schedule: Q01DX028 (sc), vehicle: saline 165 % of control | dose: 140.0 mg/kg/injection, schedule: Q01DX028 (sc), vehicle: saline 173 % of control

N=C(N)SCc1c2ccccc2c(CSC(=N)N)c2ccccc12
inactive: dose: 2.5 mg/kg/injection, schedule: Q01DX028 (sc), vehicle: carboxymethylcellulose (CMC) 97 % of control | [6] 112 % of control | dose: 10.0 mg/kg/injection, schedule: Q01DX028 (sc), vehicle: carboxymethylcellulose (CMC) 95 % of control | dose: 20.0 mg/kg/injection, schedule: Q01DX028 (sc), vehicle: carboxymethylcellulose (CMC) 117 % of control | dose: 40.0 mg/kg/injection, schedule: Q01DX028 (sc), vehicle: carboxymethylcellulose (CMC) 115 % of control

CN(Cc1cnc2nc(N)nc(N)c2n1)c1ccc(C(=O)N[C@@H](CCC(=O)O)C(=O)O)cc1
inactive: dose: 0.12 mg/kg/injection, schedule: Q01DX028 (sc), vehicle: other 105 % of control | dose: 1.0 mg/kg/injection, schedule: Q01DX028 (sc), vehicle: other 98 % of control

COC(=O)c1nc(-c2ccc3c(n2)C(=O)C(N)=C(OC)C3=O)c(N)c(-c2ccc(OC)c(OC)c2O)c1C
inactive: [1] 100 % of control | [2] 100 % of control | [3] 100 % of control | [4] 100 % of control | [5] 100 % of control | dose: 5.0 mg/kg/injection, schedule: Q01DX028 (sc), vehicle: other 102 % of control
